Patent publication US11628179B2, “Compounds for treating and preventing extracellular histone mediated pathologies” (priority 2017, dated 2023)
Where “and” joins values, the source holds several entries; their conditions need not be identical. Equal values may be shown once. Where a name gives a salt, the structure may show the parent alone.

What was measured:
[1] = HPLC analysis of mCBS in buffer formulations after 28 days; assay type: physicochemical; details: phosphate or citrate buffer, 25±2° C./60% RH and 40±2° C./75% RH
Wistar rats = experiment: Rat ischemia reperfusion tissue flap model; assay type: in vivo; details: 50 mg/kg i.p., 72 h
Source text: Rat ischemia reperfusion tissue flap model. The procedure employed is largely based on a previously described method (Askar, I., Oktay, M. F., Gurlek, A. & Bac, B. Protective effects of some antineoplastic agents on ischemia-reperfusion injury in epigastric island skin flaps. Microsurgery 26, 193-199, doi:10.1002/micr.20193 (2006)). Briefly, male Wistar rats were anaesthetised, locally depilated and a 3 cm by 6 cm fasciocutaneous flap was excised leaving the vascular pedicle intact. […] The clamp was removed […] post-application permitting returned blood flow to the flap. Test compounds (50 mg kg^−1) or saline were administered i.p. 5 min prior to clamp application and 5 min following its removal. The rats were monitored for a total experimental period of 72 h during which rats received additional compound or saline i.p. at 24 and 48 h post-op. The ‘Control No Clamp’ rats had the tissue flap excised and rubber placed underneath prior to re-suturing, however, the vessel was not clamped and they received saline at the same time points as the other rats. At the end of the experimental period the viability of the flaps was determined by the percentage of black necrotic or reddened areas vs pink viable areas. […]

[2] = mCBS vs CBS levels in phosphate buffered pH 7.5 clinical trial formulation stored at 2-8° C. (CAD); assay type: physicochemical; details: 2-8° C.
[3] = Pharmacokinetics, 5 hour intravenous infusion; assay type: in vivo, rat
Procedure: The pharmacokinetics (PK) of mCBS were studied following intravenous administration as an infusion over a 5 hours period to male Sprague Dawley rats. In this study the pharmacokinetics of the mCBS compound were investigated following intravenous infusion. The compound was formulated using Hartman's solution and administered to a group of n=3 rats at the rate of 25.3 mg/kg/h (total dose: 126.5 mg/kg; Group 1) and to a second group of n=3 rats at the rate of 50.6 mg/kg/h (total dose: 253 mg/kg; Group 2).
A total of six blood PK samples were collected from each rat at time points ranging from pre-dose to 5 hours after the start of the infusion. The resulting blood samples were processed to plasma, and subsequently analysed for the concentration of mCBS using an LC-MS/MS based method. Phoenix 64 WinNonlin® software was used to estimate area under the concentration versus time curve (AUC) values over the 0 to 5 h infusion interval. Values for concentration at steady state (Css) and clearance (Cl) were also estimated.

[4] = Pharmacokinetics, intravenous bolus 100 mg/kg (plasma and urine); assay type: in vivo, rat
Procedure: A total of nine blood samples were collected from each rat at time points ranging from pre-dose to 192 hours post-dose. Urine samples were also collected over the first 48 hours. The resulting blood samples were processed to plasma. The urine and plasma samples were subsequently analysed for the concentration of mCBS (free-base) using LC-MS/MS based methods.

[5] = tested on: Human platelets in whole blood; experiment: Histone-induced platelet degranulation (ATP release); assay type: cell-based; details: compounds added prior to histones 400 μg/mL
[6] = Pharmacokinetics, intravenous bolus 20 mg/kg; assay type: in vivo, rat
Procedure: A total of ten blood samples were collected from three rats at time points ranging from pre-dose to 48 hours post-dose. The resulting blood samples were processed to plasma and subsequently analysed for the concentration of mCBS (free-base) using an LC-MS/MS based method. The plasma concentration versus time data were used for calculation of pharmacokinetic parameters.

Beagle dogs = experiment: Phase 2, continuous intravenous infusion at the MTD for 6 additional days; assay type: in vivo, dog
Procedure: Following confirmation of the MTD (2788 mg/kg/day), the dogs were then transferred to Phase 2 of the study, and the dosing administration was resumed at the MTD for 6 additional days of continuous infusion as indicated in Table 16 below.
Following completion of the additional 6 days of continuous infusion and collection of the last toxicokinetic blood samples, all animals were euthanized and subjected to a necropsy examination on Day 8. Histological examination was performed on the liver and kidneys of all animals.

HMEC-1 = experiment: Histone-induced calcium flux in endothelial cells; assay type: cell-based, human; details: mCBS 100 μg ml−1, histones 100 μg ml−1
Procedure: Calcium flux studies in endothelial cells. HMEC-1 (2×10^7 ml^−1) in RPMI-1640 medium were incubated with Indo-1 AM (5 μM)(ThermoFisher) at 37° C. for 60 min. […] The cell suspension was kept on ice and used within 3 h. Intracellular Ca^2+ flux was monitored using flow cytometry. The cells were pre-equilibrated and maintained at 37° C. during analysis using an external sheath connected to a heated water bath. After the exclusion of cellular debris and clumped cells (on the basis of FSC/SSC light scattering) the basal Ca^2+ level was monitored for 2 min before histone addition in the presence/absence of novel compounds. Ca^2+ levels were measured at 1, 4 and 10 min post-histone addition with a constant flow rate (˜300 events/sec). Ca^2+ flux was determined as an increase in the ratio of geometric mean fluorescence intensity (GMFI) of Ca^2+-bound over Ca^2+-unbound Indo-1.

[7] = IV bolus 100 mg/kg as sodium salt
[8] = IV bolus 20 mg/kg as sodium salt

SMILES: CO[C@@H]1O[C@H](COS(=O)(=O)O)[C@@H](O[C@@H]2O[C@H](COS(=O)(=O)O)[C@@H](OS(=O)(=O)O)[C@H](OS(=O)(=O)O)[C@H]2OS(=O)(=O)O)[C@H](OS(=O)(=O)O)[C@H]1OS(=O)(=O)O [mCBS, β-O-methyl cellobioside sulfate]
- variation from nominal after 28 days [1]: ~2 % of nominal
- viable area of the skin flap (Wistar rats): consistently and significantly increased the viable area of the skin flap
- level in phosphate buffered pH 7.5 formulation ([2]; T0 (months)): 98.33 CAD %
- level in phosphate buffered pH 7.5 formulation ([2]; T2): 98.39 CAD %
- level in phosphate buffered pH 7.5 formulation ([2]; T3): 98.37 CAD %
- level in phosphate buffered pH 7.5 formulation ([2]; T7): 98.54 CAD %
- level in phosphate buffered pH 7.5 formulation ([2]; T10): 98.47 CAD %
- level in phosphate buffered pH 7.5 formulation ([2]; T13): 98.44 CAD %
- level in phosphate buffered pH 7.5 formulation ([2]; T19): 98.78 CAD %
- stability when stored in aqueous buffered solution ([2]; over 18 months): high stability
- Cl, mean (±SEM) ([3]; Group 1, 25.3 mg/kg/h): 0.601 (±0.081) l/h/kg
- Css, mean (±SEM) ([3]; Group 1, 25.3 mg/kg/h): 58,400 (±6,920) ng/ml
- AUC 0-5 h infusion interval, mean (±SEM) ([3]; Group 1, IV infusion 25.3 mg/kg/h for 5 h): 260,000 (±30,200) ng·h/mL
- Cl, mean (±SEM) ([3]; Group 2, 50.6 mg/kg/h): 0.571 (±0.025)
- Css, mean (±SEM) ([3]; Group 2, 50.6 mg/kg/h): 120,000 (±5,560) ng/ml
- AUC 0-5 h infusion interval, mean (±SEM) ([3]; Group 2, IV infusion 50.6 mg/kg/h for 5 h): 532,000 (±25,500) ng·h/mL
- time of infusion to reach steady state plasma level (Css) ([3]; IV infusion): 2 h
- Css and AUC at 50 mg/kg/hr compared to 25 mg/kg/hr ([3]; IV infusion 5 h): 2 fold
- APTT (coagulation test) ([3]; rats treated with the higher dose): higher APTT score compared to the reference range
- percent of total dose excreted in urine, mean (±SEM) ([4]; 0-4 h post-dosing): 52.0 (±5.0) %
- percent of total dose excreted in urine, mean (±SEM) ([4]; 0-24 h post-dosing): 65.0 (±7.0) %
- percent of total dose excreted in urine, mean (±SEM) ([4]; 0-48 h post-dosing): 69.2 (±10.8) %
- AUCinf [4, 7]: 135,000 ng·h/mL
- AUClast [4, 7]: 135,000 ng·h/mL
- distribution half-life [4, 7]: 39 min
- mean residence time (MRT) [4, 7]: 1.43 h
- terminal total body clearance (Cl) [4, 7]: 0.605 L/h/kg
- volume of distribution (Vz) [4, 7]: 49.0 L/kg
- concentration at time zero (C0) ([4]; IV bolus 100 mg/kg as sodium salt (81.5 mg/kg free base), pooled mean plasma data, 6 rats): 308,000 ng/mL
- apparent terminal elimination half-life (T½) ([4]; IV bolus 100 mg/kg as sodium salt, 100 mg/kg): 56.1 h and ~56 h
- histone-induced platelet degranulation (ATP release) [5]: significantly reduced
- AUCinf, mean (±SEM) [6, 8]: 35000 (±2940) ng·h/mL
- AUClast, mean (±SEM) [6, 8]: 34300 (±2460) ng·h/mL
- apparent elimination half-life (T½), mean (±SEM) [6, 8]: 77.5 (±54.5) h
- mean residence time (MRT), mean (±SEM) [6, 8]: 5.58 (±3.99) h
- total body clearance (Cl), mean (±SEM) [6, 8]: 0.472 (±0.0377) L/h/kg
- volume of distribution (Vz), mean (±SEM) [6, 8]: 46.9 (±30.7) L/kg
- concentration at time zero (C0), mean (±SEM) ([6]; IV bolus 20 mg/kg as sodium salt (16.3 mg/kg free base), plasma, n=3): 73400 (±8560) ng/mL
- administered dose removed from the central compartment ([6]; IV bolus 20 mg/kg, first 4 hours): over 90%
- concentration that doubled the control clotting time (whole blood coagulation): 100 µg/mL
- reduction in anticoagulant activity compared to LMWH, Enoxaparin (whole blood coagulation): 110 fold
- tolerability (Beagle dogs; 2788 mg/kg/day continuous IV infusion): well tolerated
- t1/2 after end of infusion (Beagle dogs; 2788 mg/kg/day, both animals): approximately 1 hour
- histone-induced Ca2+ flux (HMEC-1): substantially inhibited the response
